Data from article PMC10916400, “Effect of the aggregated protein dye YAT2150 on Leishmania parasite viability” (Antimicrobial Agents and Chemotherapy, 2024).
Residues, ends and D or L forms follow the SMILES beside them.

Key:
[1] = tested on: L. infantum promastigotes; test: microbe, parasite or virus in culture; assay type: cell-based, Leishmania infantum; conditions: for growth inhibition: promastigotes, 72 h, 100 µM; for Selectivity index (CC50/IC50): CC50 in human umbilical vein endothelial cells / IC50 for promastigotes; for IC50: L. infantum promastigotes, in vitro
Procedure: L. infantum (MHOM/ES/2016/CATB101) promastigotes were maintained at 26°C in complete Schneider’s medium (Schneider’s insect medium supplemented with 10% FBS, 25 µg/mL gentamycin, 1% penicillin-streptomycin, and 1% sterile human urine, pH 6.7). For growth inhibition assays, promastigotes were used in the logarithmic growth phase, whereas for the infection of macrophages and generation of amastigotes they were used in the stationary phase. Axenic amastigotes were obtained following established protocols ([40], [57][–][59]); briefly, 1 × 10^7 promastigotes/mL in stationary phase were cultured in Schneider’s insect medium supplemented with 20% FBS, 25 µg/mL gentamycin, and 3.9 g/L of 2-(N-morpholino)ethanesulfonic acid, at pH 5.4 and 37°C. After 48 h, the typical rounded morphology of axenic amastigotes and their flagellum shortening could be observed. This culture was used within a week after its preparation.
In 96-well microtiter plates (Nunclon Delta surface; Thermo Fisher Scientific Inc.), serial dilutions (1:2) of the drugs or peptides were performed, either free or loaded in nanoformulations, in 100 µL of complete Schneider’s medium, to which one volume of 2 × 10^6 logarithmic growth-phase L. infantum promastigotes/mL in the same buffer was added. After 48 h, resazurin sodium salt was incorporated at a final concentration of 0.00125% and the plates were incubated at 26°C for another 24 h, when fluorescence from resorufin was measured as described above.

[2] = tested on: promastigotes; set-up: method as in PMID 16316700; conditions: cited from earlier work
[3] = tested on: L. infantum amastigotes; test: Amastigote growth inhibition assay (parasite rescue and transformation, RAW 264.7 macrophages); assay type: cell-based, Leishmania infantum; conditions: in vitro
Procedure: Compound activity on amastigotes was determined following the parasite rescue and transformation assay ([61]). RAW 264.7 macrophages were seeded in 96-well microtiter plates at 10^5 cells/mL of DMEM supplemented with 10% FBS and 1% penicillin-streptomycin (complete DMEM, DMEMc) in a final volume of 200 µL per well. After an overnight incubation (37°C, 5% CO2) to allow cell adherence, the medium was removed and 10^6 L. infantum promastigotes/mL were added (1:10 macrophage:promastigote ratio) in DMEM supplemented with 2% FBS and 1% penicillin-streptomycin (DMEM 2% FBS). After 24 h, parasites not internalized by macrophages were removed by washing (3×, PBS) and dilutions in DMEM 2% FBS of free or liposome-encapsulated compounds were added. After 48 h, the medium was removed, cells were washed three times with PBS, and 40 µL of 0.05% SDS in complete Schneider’s medium was added; after 40 s, 160 additional µL/well of complete Schneider’s medium was added and plates were incubated at 26°C for another 48 h. Then, resazurin sodium salt was incorporated at a final concentration of 0.00125% and plates were incubated for 24 h more in the same conditions. Afterwards, resorufin fluorescence was measured as above.

[4] = in vitro; assay type: cell-based; conditions: human umbilical vein endothelial cells; for CC50: 48 h
Procedure: Human umbilical vein endothelial cells were maintained in M-199 supplemented with 10% fetal bovine serum (FBS) and 1% penicillin-streptomycin at 37°C, 5% CO2, and seeded in 96-well plates at a density of 50,000 cells/mL. After allowing cell adherence for 24 h, the medium was removed, and drugs or nanoformulations were added in M-199 supplemented with 1% penicillin-streptomycin. Plates were incubated for 48 h, and then, the medium in each well was replaced by 100 µL of M-199 containing penicillin-streptomycin and 0.00125% resazurin sodium salt (Sigma-Aldrich Corporation). Plates were incubated for 4 h, and resorufin fluorescence emission was measured (λex/em: 535/590 nm) in a Tecan Infinite 200 PRO equipment (Tecan Trading AG).

[5] = Leishmania infantum, RAW264.7, L. infantum amastigotes in RAW 264.7 macrophages
[6] = L. infantum amastigotes in RAW 264.7 macrophages

SMILES	Selectivity index (CC50/IC50) [1]	IC50 ([1]; Leishmania infantum)	IC50 [3, 5]	CC50 [4]	IC50 [1]	IC50 [3, 6]	CC50 at 48 h [4]	other results
CC[C@H](C)[C@H](NC(=O)[C@H](C)NC(C)=O)C(=O)N[C@@H](CO)C(=O)N[C@H](C(=O)N[C@@H](Cc1ccccc1)C(=O)N[C@@H](Cc1ccccc1)C(=O)N[C@@H](CC(C)C)C(=O)N[C@@H](CCC(=O)O)C(=O)N1CCC[C@H]1C(N)=O)C(C)C (Ac-AISVFFLEP-NH2)	–	–	–	–	–	–	–	growth inhibition [1]: 0%
C[C@@H]1[C@H](O)[C@@H](C)/C=C/C=C/C=C/C=C/C=C/C=C/C=C/[C@H](O[C@@H]2O[C@H](C)[C@@H](O)[C@H](N)[C@@H]2O)C[C@@H]2O[C@](O)(C[C@@H](O)C[C@@H](O)[C@H](O)CC[C@@H](O)C[C@@H](O)CC(=O)O[C@H]1C)C[C@H](O)[C@H]2C(=O)O [Amphotericin B]	–	–	–	–	–	–	–	IC50 [2]: 40 nM
CC[C@H](C)[C@H](NC(=O)[C@H](Cc1ccccc1)NC(=O)[C@H](CC(N)=O)NC(=O)[C@H](CC(=O)O)NC(C)=O)C(=O)N[C@@H](Cc1ccccc1)C(=O)NCC(=O)N[C@@H](CCC(N)=O)C(N)=O [DNFIFGQ, Acetyl-DNFIFGQ-amide] (Ac-DNFIFGQ-NH2)	–	–	–	–	–	–	–	growth inhibition [1]: 2%
COc1cc2c(cc1OC)C(=O)C(CC1CCN(CCCNc3c4c(nc5cc(Cl)ccc35)CCCC4)CC1)C2 (stereo not drawn) [DONE3TCl]	6.0	2090 ± 400 nM	620 ± 80 nM	12600 ± 2200 nM	–	–	–	–
CC1=CC2Cc3nc4cc(Cl)ccc4c(NCCCCCCCNc4c5c(nc6ccccc46)CCCC5)c3C(C1)C2 (stereo not drawn) [HUP7TH]	–	–	–	–	1230 ± 420 nM	920 ± 380 nM	7800 ± 3400 nM	–
CC1=CC2Cc3nc4cc(Cl)ccc4c(NCCCCCCCCNc4c5c(nc6ccccc46)CCCC5)c3C(C1)C2 (stereo not drawn) [HUP8TH]	4.9	990 ± 470 nM	1630 ± 340 nM	4900 ± 1300 nM	–	–	–	–
CC1=CC2Cc3nc4ccccc4c(NCCCCCCCCCCNc4c5c(nc6ccccc46)CCCC5)c3C(C1)C2 (stereo not drawn) [HUPH10TH]	–	–	–	–	720 ± 110 nM	970 ± 210 nM	3400 ± 100 nM	–
CC1=CC2Cc3nc4cc(Cl)ccc4c(NCCCN(C)CCCNc4c5c(nc6cc(Cl)ccc46)CCCC5)c3C(C1)C2 (stereo not drawn) [HUPNTCl]	3.1	2030 ± 190 nM	1040 ± 210 nM	6300 ± 500 nM	–	–	–	–
CC1=CC2Cc3nc4cc(Cl)ccc4c(NCCCN(C)CCCNc4c5c(nc6ccccc46)CCCC5)c3C(C1)C2 (stereo not drawn) [HUPNTH]	–	–	–	–	2370 ± 1400 nM	1520 ± 660 nM	3400 ± 1000 nM	–
